Where “and” joins values, the source holds several entries; their conditions need not be identical. Equal entries are not always repeated.

Test [1] concerns corn (Kandy Korn, extra sweet) plants. In words: Reduction of plant wilting senescence, foliar spray on corn seedlings. The test is classed as in vivo. The following applies: foliar spray of 1 mM (0.023% wt) in water at day 18, observed at day 25, n = 12, untreated 65%. As to the method:
Seeds of corn (Kandy Korn, extra sweet) are planted in 2-inch pots. Seedlings are grown in 2-inch pots under 16-hour day/8-hour night greenhouse conditions. Plants are placed outdoors and receive 5-6 hours of natural, direct light 4-6 days per week. At day 18, seedlings receive one of two treatments: T1: untreated plants (n=11) and T2: treated, plants with foliar spray of 1 mM (0.023% wt) of methyl dihydrojasmonate (MDJ) in water. Plants are sprayed until the point of drip. (n=12). At day 25, plants are observed and senescence is recorded (percentage of wilting plants).

Test [2] concerns seeds of the corn varietal Kandy Korn. In words: Reduction of retarded seed germination rate senescence, seed soak (germination rate and radicle length). In kind it is in vivo. The method, then: Non-germinated seeds of the corn varietal Kandy Korn are soaked in one of two treatment solutions: T1: untreated, only water and T2: treated, 1.5 mM (0.034% wt) of methyl dihydrojasmonate (MDJ) in water for 24 hours in 50 mL conical vessels. During the soak event, the seeds spend 12 hours in typical lighting conditions and 12 hours in darkness. Following seed treatment, the treatment solutions are drained from their vessels and a selection of seeds are taken from each vessel for planting. Six two-inch pots are planted for each treatment group, with three seeds per pot, for a total of 18 seeds planted per treatment. The unplanted seeds are allowed to remain in their original vessels in lighted conditions. In addition to determining the germination rate, the radicle lengths of the germinated seeds are measured.

Regarding `CCCCCC1C(=O)CCC1CC(=O)OC` (stereo not shown) [MDJ, methyl dihydrojasmonate], the “% of plants with senescing plant wilting” value in test [1] was 25%. Besides, in test [2] (corn seeds soaked 24 hours in 1.5 mM (0.034% wt) in water, n = 10, untreated (only water) 50%), the “Germination Rate (percent of seeds that germinated)” value is 100%. In addition, the “Radicle length measurements of unplanted germinated seeds (individual seeds)” value in test [2] (corn seeds soaked 24 hours in 1.5 mM in water, one value per seed, untreated 1-3 mm, listed as Methyl Dihydrojasmonate (MDJ)) is 5 mm (3×) and 6 mm (2×) and 4 mm (4×) and 3 mm. Also, the “average radicle length compared with untreated (only water)” value in test [2] (corn seeds soaked in 1.5 mM, FIG. 2) is listed as “significantly longer”.

(Values after patent US20250089713A1, “METHOD OF CONTROLLING OR REDUCING SENESCENCE IN PLANTS AND SEEDS” (Bedoukian Reseach, Inc., priority 2023, published 2025).)
